According to patent US20250361230A1, “LATS Inhibitors and Uses Thereof” (The USA, as Represented by the Secretary, Dept. of Heath …, priority 2022, published 2025):

Key:
Format in all cases: biochemical
LATS1 = target: T1, LATS1 (Homo sapiens, UniProt O95835); assay: RBC HotSpot kinase assay (33P-ATP, P81 filter-binding), LATS1; conditions: Table 28, biochemical kinase assay; read-out: LATS1 IC50
T1 sequence (O95835 1-1130): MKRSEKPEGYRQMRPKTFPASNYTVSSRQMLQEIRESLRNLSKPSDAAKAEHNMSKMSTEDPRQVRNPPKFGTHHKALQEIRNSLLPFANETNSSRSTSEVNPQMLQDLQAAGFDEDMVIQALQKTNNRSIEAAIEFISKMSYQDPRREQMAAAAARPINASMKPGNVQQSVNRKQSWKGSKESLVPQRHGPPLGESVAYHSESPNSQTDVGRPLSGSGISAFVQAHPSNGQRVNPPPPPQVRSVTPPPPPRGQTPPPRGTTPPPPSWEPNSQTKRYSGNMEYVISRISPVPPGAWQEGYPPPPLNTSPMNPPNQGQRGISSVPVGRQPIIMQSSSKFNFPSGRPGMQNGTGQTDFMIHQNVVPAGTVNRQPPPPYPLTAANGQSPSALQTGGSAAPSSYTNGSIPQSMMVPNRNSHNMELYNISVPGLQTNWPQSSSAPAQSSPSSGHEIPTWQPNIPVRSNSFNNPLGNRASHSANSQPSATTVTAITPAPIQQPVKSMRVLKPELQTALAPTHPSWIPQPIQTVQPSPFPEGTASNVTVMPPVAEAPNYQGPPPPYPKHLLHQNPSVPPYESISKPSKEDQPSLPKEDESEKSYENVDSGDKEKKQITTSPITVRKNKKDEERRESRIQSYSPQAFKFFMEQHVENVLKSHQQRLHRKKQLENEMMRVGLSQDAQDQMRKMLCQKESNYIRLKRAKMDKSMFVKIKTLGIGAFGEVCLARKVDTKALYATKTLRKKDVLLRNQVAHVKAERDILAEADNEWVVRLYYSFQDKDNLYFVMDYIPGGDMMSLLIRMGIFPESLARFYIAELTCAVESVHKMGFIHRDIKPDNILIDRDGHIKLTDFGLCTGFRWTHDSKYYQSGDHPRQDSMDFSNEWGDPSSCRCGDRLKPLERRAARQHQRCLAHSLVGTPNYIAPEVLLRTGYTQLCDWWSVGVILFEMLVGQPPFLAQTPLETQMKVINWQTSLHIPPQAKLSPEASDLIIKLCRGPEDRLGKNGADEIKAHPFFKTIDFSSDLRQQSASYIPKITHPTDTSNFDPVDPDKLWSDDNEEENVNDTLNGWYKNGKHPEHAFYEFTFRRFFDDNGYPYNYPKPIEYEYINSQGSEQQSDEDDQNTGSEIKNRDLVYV
Summary of the method: (§1)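 Kinase in Hepes pH 7.5 buffer with Mg2+, EGTA, Brij35, BSA, vanadate, DTT and 1% DMSO, plus required cofactors and substrate, was preincubated 20 min at room temperature with compound. Reaction was started with 33P-ATP and run 2 h, then detected by P81 filter binding. IC50 (nM) came from 10-point singlet curves.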

LATS2 = target: T2, LATS2 (Homo sapiens, UniProt Q9NRM7); assay: RBC HotSpot kinase assay (33P-ATP, P81 filter-binding), LATS2; conditions: Table 28, biochemical kinase assay; read-out: LATS2 IC50
T2 sequence (Q9NRM7 1-1088): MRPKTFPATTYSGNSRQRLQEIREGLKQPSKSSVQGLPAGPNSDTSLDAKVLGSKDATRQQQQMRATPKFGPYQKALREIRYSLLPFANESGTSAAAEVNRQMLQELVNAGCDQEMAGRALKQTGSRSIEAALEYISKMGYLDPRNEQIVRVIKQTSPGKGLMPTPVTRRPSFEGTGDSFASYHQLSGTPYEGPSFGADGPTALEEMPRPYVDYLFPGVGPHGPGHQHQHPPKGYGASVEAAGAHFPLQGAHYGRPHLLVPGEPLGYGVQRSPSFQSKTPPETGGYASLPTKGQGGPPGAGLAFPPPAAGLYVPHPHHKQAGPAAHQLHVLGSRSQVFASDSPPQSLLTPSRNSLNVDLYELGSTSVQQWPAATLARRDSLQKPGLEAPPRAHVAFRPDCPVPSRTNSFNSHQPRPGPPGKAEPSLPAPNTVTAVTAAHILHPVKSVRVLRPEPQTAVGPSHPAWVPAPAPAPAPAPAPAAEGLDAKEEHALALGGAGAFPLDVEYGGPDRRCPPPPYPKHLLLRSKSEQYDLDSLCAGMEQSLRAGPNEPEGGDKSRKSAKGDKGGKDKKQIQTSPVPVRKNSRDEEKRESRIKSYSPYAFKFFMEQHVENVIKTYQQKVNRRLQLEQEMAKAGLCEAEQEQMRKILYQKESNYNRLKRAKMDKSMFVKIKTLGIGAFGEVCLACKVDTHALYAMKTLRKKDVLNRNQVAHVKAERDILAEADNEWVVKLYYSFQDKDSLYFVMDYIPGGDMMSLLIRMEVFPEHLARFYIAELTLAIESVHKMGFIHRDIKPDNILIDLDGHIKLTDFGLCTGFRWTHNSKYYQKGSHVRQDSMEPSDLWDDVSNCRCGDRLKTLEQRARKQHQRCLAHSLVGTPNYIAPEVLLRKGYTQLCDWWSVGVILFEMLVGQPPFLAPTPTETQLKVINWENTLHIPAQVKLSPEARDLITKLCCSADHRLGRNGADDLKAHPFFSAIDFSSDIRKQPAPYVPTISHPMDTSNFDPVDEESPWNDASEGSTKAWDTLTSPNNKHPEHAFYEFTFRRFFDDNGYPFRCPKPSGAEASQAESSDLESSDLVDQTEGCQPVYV
Summary of the method: as §1

AKT = AKT (Homo sapiens, UniProt P31749); assay: RBC HotSpot kinase assay (33P-ATP, P81 filter-binding), AKT; conditions: Table 28, biochemical kinase assay; read-out: AKT IC50
Summary of the method: as §1

AKT, sequence (P31749 whole entry): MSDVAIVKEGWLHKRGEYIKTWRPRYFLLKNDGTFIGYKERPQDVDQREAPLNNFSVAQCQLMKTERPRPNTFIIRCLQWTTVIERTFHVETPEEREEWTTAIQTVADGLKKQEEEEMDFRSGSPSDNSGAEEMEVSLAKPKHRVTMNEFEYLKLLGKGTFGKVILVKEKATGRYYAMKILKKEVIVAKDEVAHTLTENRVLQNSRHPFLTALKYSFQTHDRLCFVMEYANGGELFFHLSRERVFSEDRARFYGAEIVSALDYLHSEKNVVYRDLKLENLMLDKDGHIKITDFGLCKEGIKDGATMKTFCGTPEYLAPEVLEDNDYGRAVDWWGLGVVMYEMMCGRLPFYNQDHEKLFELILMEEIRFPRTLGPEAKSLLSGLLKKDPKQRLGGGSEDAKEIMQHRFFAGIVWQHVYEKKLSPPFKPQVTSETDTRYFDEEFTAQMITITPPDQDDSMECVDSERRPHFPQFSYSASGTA

IC50 (LATS1) [nM]	IC50 (LATS2) [nM]	IC50 (AKT) [nM]	SMILES
11.4	42.8	712	OC1(c2ccc(-c3ccnc4[nH]cc(F)c34)cc2Cl)CCNCC1 [Compound 97, 4-(2-chloro-4-(3-fluoro-1H-pyrrolo[2,3-b]pyridin-4-yl)phenyl)piperidin-4-ol]
24	37	383	CC1CC(O)(c2ccc(-c3ccnc4[nH]cc(F)c34)cc2Cl)CCN1 (stereo not drawn) [Compound 98, 4-(2-chloro-4-(3-fluoro-1H-pyrrolo[2,3-b]pyridin-4-yl)phenyl)-2-methylpiperidin-4-ol]
230	195	1900	CC1CC(O)(c2ccc(-c3ccnc4[nH]cc(F)c34)cc2Cl)CC(C)N1 (stereo not drawn) [Compound 100, 4-(2-chloro-4-(3-fluoro-1H-pyrrolo[2,3-b]pyridin-4-yl)phenyl)-2,6-dimethylpiperidin-4-ol]
7.1	70.8	1950	COC(=O)c1c[nH]c2nccc(-c3ccc(C4(O)CCNCC4)c(Cl)c3)c12 [Compound 101, methyl 4-(3-chloro-4-(4-hydroxypiperidin-4-yl)phenyl)-1H-pyrrolo[2,3-b]pyridine-3-carboxylate]
16	14	828	OC1(c2ccc(-c3ccnc4[nH]cc(F)c34)cc2Cl)CNC1 [Compound 105, 3-(2-chloro-4-(3-fluoro-1H-pyrrolo[2,3-b]pyridin-4-yl)phenyl)azetidin-3-ol]
18.2	110	885	COC(=O)c1c[nH]c2nccc(-c3ccc(C4(O)CNC4)c(Cl)c3)c12 [Compound 106, methyl 4-(3-chloro-4-(3-hydroxyazetidin-3-yl)phenyl)-1H-pyrrolo[2,3-b]pyridine-3-carboxylate]

Second part, the compound before the results:

SMILES	IC50 (LATS1) [nM]	IC50 (LATS2) [nM]	IC50 (AKT) [nM]
C[C@@H]1CN(C(=O)[C@@H](C)N)C[C@H](C)C1(O)c1c(F)cc(-c2ccnc3[nH]cc(F)c23)cc1F (stereo partly drawn) [Compound 86, (2R)-2-amino-1-((3S,5R)-4-(2,6-difluoro-4-(3-fluoro-1H-pyrrolo[2,3-b]pyridin-4-yl)phenyl)-4-hydroxy-3,5-dimethylpiperidin-1-yl)propan-1-one]	20.3	6.5	691
C[C@@H]1CN(C(=O)CN)C[C@H](C)C1(O)c1cnc(-c2ccnc3[nH]cc(F)c23)cc1F (stereo partly drawn) [Compound 87, 2-amino-1-((3S,5R)-4-(4-fluoro-6-(3-fluoro-1H-pyrrolo[2,3-b]pyridin-4-yl)pyridin-3-yl)-4-hydroxy-3,5-dimethylpiperidin-1-yl)ethan-1-one]	48	47.3	4010
C[C@@H]1CN(C2CC3(CNC3)C2)C[C@H](C)[C@@]1(O)c1c(F)cc(-c2ccnc3[nH]cc(F)c23)cc1F [Compound 89, (3R,4s,5S)-4-(2,6-difluoro-4-(3-fluoro-1H-pyrrolo[2,3-b]pyridin-4-yl)phenyl)-3,5-dimethyl-1-(2-azaspiro[3.3]heptan-6-yl)piperidin-4-ol]	3.7	3.8	68
Cc1cc(-c2ccnc3[nH]cc(F)c23)cc(F)c1[C@@]1(O)[C@H](C)CN(C2CCNCC2)C[C@@H]1C [Compound 91, (3S,4s,5R)-4-(2-fluoro-4-(3-fluoro-1H-pyrrolo[2,3-b]pyridin-4-yl)-6-methylphenyl)-3,5-dimethyl-[1,4′-bipiperidin]-4-ol]	7.9	4.2	179
C[C@@H]1CN(Cc2ccccc2)C[C@H](C)[C@@]1(O)c1c(F)cc(-c2ccnc3[nH]cc(F)c23)cc1F [Compound 93, (3S,4s,5R)-1-benzyl-4-(2,6-difluoro-4-(3-fluoro-1H-pyrrolo[2,3-b]pyridin-4-yl)phenyl)-3,5-dimethylpiperidin-4-ol]	10.6	7.7	2090
CC(=O)N1C[C@@H](C)[C@](O)(c2c(F)cc(-c3ccnc4[nH]cc(F)c34)cc2F)[C@@H](C)C1 [Compound 94, 1-((3S,4s,5R)-4-(2,6-difluoro-4-(3-fluoro-1H-pyrrolo[2,3-b]pyridin-4-yl)phenyl)-4-hydroxy-3,5-dimethylpiperidin-1-yl)ethan-1-one]	17.8	29.4	4750
CC(=O)N1C[C@@H](C)[C@](O)(c2c(C)cc(-c3ccnc4[nH]cc(F)c34)cc2F)[C@@H](C)C1 [Compound 95, 1-((3S,5R)-4-(2-fluoro-4-(3-fluoro-1H-pyrrolo[2,3-b]pyridin-4-yl)-6-methylphenyl)-4-hydroxy-3,5-dimethylpiperidin-1-yl)ethan-1-one]	6.9	4.8	2620
OC1(c2ccc(-c3ccnc4[nH]cc(F)c34)cc2Cl)CCN2CCCC2C1 (stereo not drawn) [Compound 96, 7-(2-chloro-4-(3-fluoro-1H-pyrrolo[2,3-b]pyridin-4-yl)phenyl)octahydroindolizin-7-ol]	17	17.9	771
CC1CNCCC1(O)c1ccc(-c2ccnc3[nH]cc(F)c23)cc1Cl (stereo not drawn) [Compound 99, 4-(2-chloro-4-(3-fluoro-1H-pyrrolo[2,3-b]pyridin-4-yl)phenyl)-3-methylpiperidin-4-ol]	10.6	6.2	219
OC1(c2ccc(-c3ccnc4[nH]cc(F)c34)cc2Cl)C2CNCC1C2 (stereo not drawn) [Compound 102, 6-(2-chloro-4-(3-fluoro-1H-pyrrolo[2,3-b]pyridin-4-yl)phenyl)-3-azabicyclo[3.1.1]heptan-6-ol]	82	224	4870
O[C@]1(c2ccc(-c3ccnc4[nH]cc(F)c34)cc2Cl)[C@@H]2CC[C@H]1CNC2 [Compound 103, (1R,5S,8s)-8-(2-chloro-4-(3-fluoro-1H-pyrrolo[2,3-b]pyridin-4-yl)phenyl)-3-azabicyclo[3.2.1]octan-8-ol]	43.9	162	1720
Cc1nc(-c2ccnc3[nH]cc(F)c23)ccc1C1(O)CCNCC1 [Compound 104, 4-(6-(3-fluoro-1H-pyrrolo[2,3-b]pyridin-4-yl)-2-methylpyridin-3-yl)piperidin-4-ol]	145	326	6580
Cc1nc(-c2ccnc3[nH]cc(F)c23)ccc1C1(O)CC2(CNC2)C1 [Compound 107, 6-(6-(3-fluoro-1H-pyrrolo[2,3-b]pyridin-4-yl)-2-methylpyridin-3-yl)-2-azaspiro[3.3]heptan-6-ol]	473	661	> 10000
